This is an account of results in patent publication US20260193226A1, “MICROBIOCIDAL TETRAHYDROISOQUINOLINE DERIVATIVES” (SYNGENTA CROP PROTECTION AG, priority 2022, published 2026).

The subject of the experiment is Mycosphaerella graminicola (Septoria tritici). As to the kind of experiment: Mycosphaerella graminicola (Septoria tritici) / liquid culture (Septoria blotch). The experiment is classed as cell-based. The following applies: Zymoseptoria tritici, compared to untreated control. The method, then:
Example B15: Mycosphaerella graminicola (Septoria tritici)/Liquid Culture (Septoria Blotch) Conidia of the fungus from cryogenic storage are directly mixed into nutrient broth (PDB potato dextrose broth). After placing a (DMSO) solution of test compound into a microtiter plate (96-well format), the nutrient broth containing the fungal spores is added. The test plates are incubated at 24° C. and the inhibition of growth is determined photometrically 4 to 5 days after application.
With `Cc1c([C@H]2CN(C(=O)NCc3ccc(F)cc3F)[C@@H](C)c3ccccc32)cnn1C` (racemic) [Compound P-44, rac-(1S,4S)-N-[(2,4-difluorophenyl)methyl]-4-(1,5-dimethylpyrazol-4-yl)-1-methyl-3,4-dihydro-1H-isoquinoline-2-carboxamide], the inhibition of growth (commonly how much of the control response was suppressed) at 20 ppm is at least 80%. `Cc1c(C2CN(C(=O)OCCC3CC3)Cc3ccccc32)cnn1C` (stereo not shown) [Compound P-3, 2-cyclopropylethyl 4-(1,5-dimethylpyrazol-4-yl)-3,4-dihydro-1H-isoquinoline-2-carboxylate] returned an inhibition of growth at 20 ppm of at least 80%. Next, `CCCCCC(=O)N1Cc2ccccc2C(c2cnn(C)c2C)C1` (stereo not shown) [Compound P-5, 1-[4-(1,5-dimethylpyrazol-4-yl)-3,4-dihydro-1H-isoquinolin-2-yl]hexan-1-one]: at least 80%.

As for `CCCCCCC(=O)N1Cc2ccccc2C(C)(c2cnn(C)c2)C1` (stereo not shown) [Compound P-8, 1-[4-methyl-4-(1-methylpyrazol-4-yl)-1,3-dihydroisoquinolin-2-yl]heptan-1-one], the inhibition of growth at 20 ppm was at least 80%. The result for `CCCCCCCCCC(=O)N1Cc2ccccc2C(c2cnn(C)c2C)C1` (stereo not shown) [Compound P-9, 1-[4-(1,5-dimethylpyrazol-4-yl)-3,4-dihydro-1H-isoquinolin-2-yl]decan-1-one] reads at least 80%; that for `Cn1cc(C2(C)CN(C(=O)OCCC3CCCCC3)Cc3ccccc32)cn1` (stereo not shown) [Compound P-12, 2-cyclohexylethyl 4-methyl-4-(1-methylpyrazol-4-yl)-1,3-dihydroisoquinoline-2-carboxylate], at least 80%.

The molecule `Cc1c(C2CN(C(=O)COc3ccc(F)cc3F)Cc3ccccc32)cnn1C` (stereo not shown) [Compound P-13, 2-(2,4-difluorophenoxy)-1-[4-(1,5-dimethylpyrazol-4-yl)-3,4-dihydro-1H-isoquinolin-2-yl]ethanone] displayed an inhibition of growth at 20 ppm of at least 80%.

`Cc1c(C2CN(C(=O)COCc3ccc(F)cc3F)Cc3ccccc32)cnn1C` (stereo not shown) [Compound P-15, 2-[(2,4-difluorophenyl)methoxy]-1-[4-(1,5-dimethylpyrazol-4-yl)-3,4-dihydro-1H-isoquinolin-2-yl]ethanone]: the inhibition of growth at 20 ppm is at least 80%. Molecule `Cc1c(C2CN(C(=O)CCCCC3CCSS3)Cc3ccccc32)cnn1C` (stereo not shown) [Compound P-18, 1-[4-(1,5-dimethylpyrazol-4-yl)-3,4-dihydro-1H-isoquinolin-2-yl]-5-(dithiolan-3-yl)pentan-1-one] showed an inhibition of growth at 20 ppm of at least 80%.

The molecule `Cc1c(C2CN(C(=O)CCc3ccc(Br)cc3)Cc3ccccc32)cnn1C` (stereo not shown) [Compound P-20, 3-(4-bromophenyl)-1-[4-(1,5-dimethylpyrazol-4-yl)-3,4-dihydro-1H-isoquinolin-2-yl]propan-1-one] showed an inhibition of growth at 20 ppm of at least 80%. As for `C#CCCCCCC(=O)N1Cc2ccccc2C(c2cnn(C)c2C)C1` (stereo not shown) [Compound P-21, 1-[4-(1,5-dimethylpyrazol-4-yl)-3,4-dihydro-1H-isoquinolin-2-yl]oct-7-yn-1-one], the inhibition of growth at 20 ppm was at least 80%. Next, `Cc1c(C2CN(C(=O)CCc3ccc(Cl)c(Cl)c3)Cc3ccccc32)cnn1C` (stereo not shown) [Compound P-23, 3-(3,4-dichlorophenyl)-1-[4-(1,5-dimethylpyrazol-4-yl)-3,4-dihydro-1H-isoquinolin-2-yl]propan-1-one]: at least 80%; `Cc1c(C2CN(C(=O)CCCC=C(F)F)Cc3ccccc32)cnn1C` (stereo not shown) [Compound P-24, 1-[4-(1,5-dimethylpyrazol-4-yl)-3,4-dihydro-1H-isoquinolin-2-yl]-6,6-difluoro-hex-5-en-1-one]: at least 80%; `Cc1c(C2CN(C(=O)OCCc3ccc(F)cc3)Cc3ccccc32)cnn1C` (stereo not shown) [Compound P-25, 2-(4-fluorophenyl)ethyl 4-(1,5-dimethylpyrazol-4-yl)-3,4-dihydro-1H-isoquinoline-2-carboxylate]: at least 80%. The result for `Cc1c(C2CN(C(=O)NCCC3CCCCCC3)Cc3ccccc32)cnn1C` (stereo not shown) [Compound P-32, N-(2-cycloheptylethyl)-4-(1,5-dimethylpyrazol-4-yl)-3,4-dihydro-1H-isoquinoline-2-carboxamide] reads at least 80%; that for `Cc1c(C2CN(C(=O)Nc3nc4ccccc4s3)Cc3ccccc32)cnn1C` (stereo not shown) [Compound P-33, N-(1,3-benzothiazol-2-yl)-4-(1,5-dimethylpyrazol-4-yl)-3,4-dihydro-1H-isoquinoline-2-carboxamide], at least 80%. As for `Cc1c(C2CN(C(=O)Nc3cc(C(C)(C)C)on3)Cc3ccccc32)cnn1C` (stereo not shown) [Compound P-34, N-(5-tert-butylisoxazol-3-yl)-4-(1,5-dimethylpyrazol-4-yl)-3,4-dihydro-1H-isoquinoline-2-carboxamide], the inhibition of growth at 20 ppm was at least 80%. The result for `Cc1nc(NC(=O)N2Cc3ccccc3C(c3cnn(C)c3C)C2)ccc1Cl` (stereo not shown) [Compound P-35, N-(5-chloro-6-methyl-2-pyridyl)-4-(1,5-dimethylpyrazol-4-yl)-3,4-dihydro-1H-isoquinoline-2-carboxamide] reads at least 80%; that for `Cc1c(C2CN(C(=O)NCCCC3CCCC3)Cc3ccccc32)cnn1C` (stereo not shown) [Compound P-38, N-(3-cyclopentylpropyl)-4-(1,5-dimethylpyrazol-4-yl)-3,4-dihydro-1H-isoquinoline-2-carboxamide], at least 80%; that for `Cc1c(C2CN(C(=O)NCCC(C)(C)C3CC3)Cc3ccccc32)cnn1C` (stereo not shown) [Compound P-39, N-(3-cyclopropyl-3-methyl-butyl)-4-(1,5-dimethylpyrazol-4-yl)-3,4-dihydro-1H-isoquinoline-2-carboxamide], at least 80%. The result for `Cc1c(C2CN(C(=O)Nc3ccc(Cl)cc3)Cc3ccccc32)cnn1C` (stereo not shown) [Compound P-40, N-(4-chlorophenyl)-4-(1,5-dimethylpyrazol-4-yl)-3,4-dihydro-1H-isoquinoline-2-carboxamide] reads at least 80%; that for `Cc1c(C2CN(C(=O)Nc3ccc(C4CC4)cc3)Cc3ccccc32)cnn1C` (stereo not shown) [Compound P-41, N-(4-cyclopropylphenyl)-4-(1,5-dimethylpyrazol-4-yl)-3,4-dihydro-1H-isoquinoline-2-carboxamide], at least 80%; that for `Cc1c(C2CN(C(=O)CCCCC3CC3)Cc3ccccc32)cnn1C` (stereo not shown) [Compound P-48, 5-cyclopropyl-1-[4-(1,5-dimethylpyrazol-4-yl)-3,4-dihydro-1H-isoquinolin-2-yl]pentan-1-one], at least 80%. Next, `Cc1c([C@H]2CN(C(=O)NCCCCCF)[C@@H](C)c3ccccc32)cnn1C` [Compound P-52, (1S,4S)-4-(1,5-dimethylpyrazol-4-yl)-N-(5-fluoropentyl)-1-methyl-3,4-dihydro-1H-isoquinoline-2-carboxamide]: at least 80%; `Cc1c([C@H]2CN(C(=O)NCCCCC(F)F)[C@@H](C)c3ccccc32)cnn1C` [Compound P-53, (1S,4S)-N-(5,5-difluoropentyl)-4-(1,5-dimethylpyrazol-4-yl)-1-methyl-3,4-dihydro-1H-isoquinoline-2-carboxamide]: at least 80%.
